Results reported in patent US8158647B2, “Substituted pyrrolopyridines and pyrazolopyridines as kinase modulators” (SGX Pharmaceuticals, Inc., priority 2007, dated 2012).

Experiments:
[1] = molecular target: T1, purified and unphosphorylated T315I Abl kinase domain (ABL_T315I_0P) (Mus musculus, UniProt P00520, T315I); experiment: c-Abl T315I (unphosphorylated kinase domain) pyruvate kinase/lactate dehydrogenase coupled enzyme assay; format: biochemical; details: 10 μM ATP
T1 construct: The c-Abl T3151 KD (kinase domain) was purified as follows; Met-Ser-Leu (vector-derived residues) (N); made in house; host or cells: E. coli BL21(DE3) strains (Codon+RIL, or pSA0145 for the lambda phosphatase co-expression plasmid)
T1 sequence (P00520 242-493 T315I limits assumed): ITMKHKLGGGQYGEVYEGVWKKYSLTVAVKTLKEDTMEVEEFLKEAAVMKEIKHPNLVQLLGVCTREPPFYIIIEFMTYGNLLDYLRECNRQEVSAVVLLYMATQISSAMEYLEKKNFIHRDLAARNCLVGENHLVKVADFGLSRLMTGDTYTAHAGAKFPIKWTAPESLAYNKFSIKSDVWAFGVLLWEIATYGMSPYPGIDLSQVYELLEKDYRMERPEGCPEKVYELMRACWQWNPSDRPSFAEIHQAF

ABL P210WT BAF3 cells = molecular target: T2, ABL P210WT BAF3 cells (Homo sapiens, UniProt P00519); experiment: 96-well XTT cell survival assay, BaF3 ABL P210WT; format: cell-based; details: ABL P210 WT, 72 hours, read-out: CELL BIO ABL P210WT BAF3 XTT (IC50)
T2 construct: ABL P210WT BAF3; fused on or other part: P11274 (Breakpoint cluster region protein)
How it was run: (§1)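 Ba/F3 cells in RPMI 1640 with 10% FBS (IL-3 medium for maintenance) were seeded at 5000-8000 cells/well and exposed to compound dilutions in duplicate for 72 h at 37° C. Viability read by XTT/PMS, absorbance 405 nm minus 650 nm after 2-6 h.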

ABL T315I BAF3 cells = molecular target: T3, ABL T315I BAF3 cells (Homo sapiens, UniProt P00519, T315I, cells depend on it); experiment: 96-well XTT cell survival assay, BaF3 ABL T315I; format: cell-based; details: 72 hours, read-out: CELL BIO ABL T315I BAF3 XTT (IC50)
T3 construct: ABL T315I BAF3; fused on or other part: P11274 (Breakpoint cluster region protein)
How it was run: as §1

Row | SMILES | ABL_T315I_0P (IC50) [1] | GI50 (ABL P210WT BAF3 cells) [nM] | GI50 (ABL T315I BAF3 cells) [nM]
1 | COc1ccc(F)cc1-c1c[nH]c2ncc(-c3cncc(C(=O)N(C)C)n3)c(Cl)c12 [6-[4-Chloro-3-(5-fluoro-2-methoxy-phenyl)-1H-pyrrolo[2,3-b]pyridin-5-yl]-pyrazine-2-carboxylic acid dimethylamide] | D (<0.01 μM) | 10 to 100 | 10 to 100
2 | CN(C)C(=O)c1cncc(-c2cnc3[nH]cc(-c4ccccc4F)c3c2Cl)n1 [6-[4-chloro-3-(2-fluoro-phenyl)-1H-pyrrolo[2,3,b]pyridine-5-] | D (<0.01 μM) | 100 to 1000 | 100 to 1000
3 | OC(c1cncc(-c2cnc3[nH]cc(-c4ccccc4)c3c2Cl)c1)c1ncccc1F (stereo not drawn) [[5-(4-Chloro-3-phenyl-1H-pyrrolo[2,3-b]pyridin-5-yl)-pyridin-3-yl]-(3-fluoro-pyridin-2-yl)-methanol] | D (<0.01 μM) | 100 to 1000 | 100 to 1000
4 | CNc1c(Br)cnc2[nH]cc(-c3ccccc3OC)c12 [[5-Bromo-3-(2-methoxy-phenyl)-1H-pyrrolo[2,3-b]pyridin-4-yl]-methyl-amine] | C (0.1-0.01 μM) | > 1000 | > 1000
5 | Nc1ncc(-c2cnc3[nH]cc(-c4cc(F)ccc4F)c3c2Cl)cc1C(=O)N1CCCC1CO (stereo not drawn) [{2-Amino-5-[4-chloro-3-(2,5-difluoro-phenyl)-1H-pyrrolo[2,3-b]pyridin-5-yl]-pyridin-3-yl}-(2-hydroxymethyl-pyrrolidin-1-yl)-methanone] | D (<0.01 μM) | 100 to 1000 | 100 to 1000
6 | CN(C)C1CCN(C(=O)c2cc(-c3cnc4[nH]cc(-c5cc(F)ccc5F)c4c3Cl)cnc2N)C1 (stereo not drawn) [{2-Amino-5-[4-chloro-3-(2,5-difluoro-phenyl)-1H-pyrrolo[2,3-b]pyridin-5-yl]-pyridin-3-yl}-(3-dimethylamino-pyrrolidin-1-yl)-methanone] | D (<0.01 μM) | 100 to 1000 | 100 to 1000
7 | Nc1ncc(-c2cnc3[nH]cc(-c4cc(F)ccc4F)c3c2Cl)cc1C(=O)N1CC(O)C1 [{2-Amino-5-[4-chloro-3-(2,5-difluoro-phenyl)-1H-pyrrolo[2,3-b]pyridin-5-yl]-pyridin-3-yl}-(3-hydroxy-azetidin-1-yl)-methanone] | D (<0.01 μM) | 100 to 1000 | 100 to 1000
8 | Nc1ncc(-c2cnc3[nH]cc(-c4cc(F)ccc4F)c3c2Cl)cc1C(=O)N1CCOCC1 [{2-Amino-5-[4-chloro-3-(2,5-difluoro-phenyl)-1H-pyrrolo[2,3-b]pyridin-5-yl]-pyridin-3-yl}-morpholin-4-yl-methanone] | D (<0.01 μM) | 100 to 1000 | 100 to 1000
9 | COc1ccccc1-c1c[nH]c2ncc(-c3cnc(N)c(C(=O)N4CCOCC4)c3)c(Cl)c12 [{2-Amino-5-[4-chloro-3-(2-methoxy-phenyl)-1H-pyrrolo[2,3-b]pyridin-5-yl]-pyridin-3-yl}-morpholin-4-yl-methanone] | D (<0.01 μM) | 100 to 1000 | 100 to 1000
10 | Nc1ncc(-c2cnc3[nH]cc(-c4cccc(F)c4)c3c2Cl)cc1C(=O)N1CCCC1CO (stereo not drawn) [{2-Amino-5-[4-chloro-3-(3-fluoro-phenyl)-1H-pyrrolo[2,3-b]pyridin-5-yl]-pyridin-3-yl}-(2-hydroxymethyl-pyrrolidin-1-yl)-methanone] | D (<0.01 μM) | 100 to 1000 | 100 to 1000
11 | CN(C)C1CCN(C(=O)c2cc(-c3cnc4[nH]cc(-c5cccc(F)c5)c4c3Cl)cnc2N)C1 (stereo not drawn) [{2-Amino-5-[4-chloro-3-(3-fluoro-phenyl)-1H-pyrrolo[2,3-b]pyridin-5-yl]-pyridin-3-yl}-(3-dimethylamino-pyrrolidin-1-yl)-methanone] | D (<0.01 μM) | 100 to 1000 | 100 to 1000
12 | Nc1ncc(-c2cnc3[nH]cc(-c4cccc(F)c4)c3c2Cl)cc1C(=O)N1CC(O)C1 [{2-Amino-5-[4-chloro-3-(3-fluoro-phenyl)-1H-pyrrolo[2,3-b]pyridin-5-yl]-pyridin-3-yl}-(3-hydroxy-azetidin-1-yl)-methanone] | D (<0.01 μM) | 100 to 1000 | 100 to 1000
13 | Nc1ncc(-c2cnc3[nH]cc(-c4cccc(F)c4)c3c2Cl)cc1C(=O)N1CCOCC1 [{2-Amino-5-[4-chloro-3-(3-fluoro-phenyl)-1H-pyrrolo[2,3-b]pyridin-5-yl]-pyridin-3-yl}-morpholin-4-yl-methanone] | D (<0.01 μM) | 10 to 100 | 10 to 100
14 | OC(c1cccc(-c2cnc3[nH]cc(-c4ccccc4F)c3c2Cl)c1)c1ncco1 (stereo not drawn) [{3-[4-Chloro-3-(2-fluoro-phenyl)-1H-pyrrolo[2,3-b]pyridin-5-yl]-phenyl}-oxazol-2-yl-methanol] | D (<0.01 μM) | > 1000 | > 1000

Further lines, with some results ahead:

Row | ABL_T315I_0P (IC50) [1] | SMILES | GI50 (ABL P210WT BAF3 cells) [nM] | GI50 (ABL T315I BAF3 cells) [nM]
15 | C (0.1-0.01 μM) | OC(c1cccc(-c2cnc3[nH]cc(-c4ccc(F)cc4)c3c2Cl)c1)c1ncco1 (stereo not drawn) [{3-[4-Chloro-3-(4-fluoro-phenyl)-1H-pyrrolo[2,3-b]pyridin-5-yl]-phenyl}-oxazol-2-yl-methanol] | > 1000 | > 1000
16 | D (<0.01 μM) | OC(c1cncc(-c2cnc3[nH]cc(-c4cccc(F)c4F)c3c2Cl)c1)c1ncccc1F (stereo not drawn) [{5-[4-Chloro-3-(2,3-difluoro-phenyl)-1H-pyrrolo[2,3-b]pyridin-5-yl]-pyridin-3-yl}-(3-fluoro-pyridin-2-yl)-methanol] | 100 to 1000 | 100 to 1000
17 | D (<0.01 μM) | OC(c1cncc(-c2cnc3[nH]cc(-c4cccc(F)c4F)c3c2Cl)c1)C1CC1 (stereo not drawn) [{5-[4-Chloro-3-(2,3-difluoro-phenyl)-1H-pyrrolo[2,3-b]pyridin-5-yl]-pyridin-3-yl}-cyclopropyl-methanol] | 100 to 1000 | 100 to 1000
18 | D (<0.01 μM) | Cn1nccc1C(O)c1cncc(-c2cnc3[nH]cc(-c4ccccc4F)c3c2Cl)c1 (stereo not drawn) [{5-[4-Chloro-3-(2-fluoro-phenyl)-1H-pyrrolo[2,3-b]pyridin-5-yl]-pyridin-3-yl}-(2-methyl-2H-pyrazol-3-yl)-methanol] | > 1000 | > 1000
19 | D (<0.01 μM) | OC(c1cncc(-c2cnc3[nH]cc(-c4ccccc4F)c3c2Cl)c1)c1ncco1 (stereo not drawn) [{5-[4-Chloro-3-(2-fluoro-phenyl)-1H-pyrrolo[2,3-b]pyridin-5-yl]-pyridin-3-yl}-oxazol-2-yl-methanol] | 100 to 1000 | 100 to 1000
20 | C (0.1-0.01 μM) | OC(c1cncc(-c2cnc3[nH]cc(-c4ccc(F)cc4)c3c2Cl)c1)c1ncccc1F (stereo not drawn) [{5-[4-Chloro-3-(4-fluoro-phenyl)-1H-pyrrolo[2,3-b]pyridin-5-yl]-pyridin-3-yl}-(3-fluoro-pyridin-2-yl)-methanol] | > 1000 | > 1000
21 | D (<0.01 μM) | COc1ccc(F)cc1-c1c[nH]c2ncc(-c3cncc(C(O)c4ncccc4F)c3)c(Cl)c12 (stereo not drawn) [{5-[4-Chloro-3-(5-fluoro-2-methoxy-phenyl)-1H-pyrrolo[2,3-b]pyridin-5-yl]-pyridin-3-yl}-(3-fluoro-pyridin-2-yl)-methanol] | < 10 | 10 to 100
